Our source for the MIC and Hemolytic activity values is publication PMC3708846, “Cathelicidin-like Helminth Defence Molecules (HDMs): Absence of Cytotoxic, Anti-microbial and Anti-protozoan Activities Imply a Specific Adaptation to Immune Modulation” (PLoS Neglected Tropical Diseases, 2013).

Values after ≈ are worked out from the molar mass of the structure shown. Values joined by “and” are separate entries in the source; they are usually repeats but may differ in a detail not shown here. Equal values may be shown once. Read-outs that look alike come from different tables or passages of the source. Ends that are not written are not given here.

The subject of series [1] is Escherichia coli. Format: cell-based.
Description: (§1) The minimal inhibitory concentration (MIC) of each peptide against various bacteria was determined using a standardized dilution method according to NCSLA guidelines [35]. Overnight colonies of E. coli, Pseudomonas aeruginosa, Salmonella typhimurium, Staphylococcus epidermis and Staphylococcus aureus, were suspended to a turbidity of 0.5 OD units and further diluted in Mueller-Hinton broth (MHB). […] Ten microliters of each concentration was added to each corresponding well of a 96-well polypropylene microtiter plate and 1×10^5 bacteria in the volume of 90 µL. The plate was incubated at 37°C for 16 h and then read at 600 nm with a Synergy H1 hybrid reader (Biotek).
Series [2] relates to Pseudomonas aeruginosa. Format: cell-based.
Description: as §1
For series [3], the system named is Salmonella typhimurium. Format: cell-based.
Description: as §1
The subject of series [4] is Staphylococcus epidermis. Format: cell-based.
Description: as §1
Series [5] deals with Staphylococcus aureus. The series is classed as cell-based.
Description: as §1
For series [6], the system named is human red blood cells. Put plainly: Haemolytic activity. The following applies: 0.5% human RBC, 1 h 37°C, OD 414 nm, 100% = 1% Triton X-100, triplicate. Format: cell-based.
Description: The peptide's haemolytic activities were determined using human red blood cells (RBCs; Research Blood Components, LLC) in 96-well polypropylene microtiter plates. One hundred µl of 0.5% RBC suspension was added to an equal volume of a peptide (8–256 µg/ml). After 1 h at 37°C, plates were centrifuged at 1420×g for 5 min and the optical density of the supernatant was measured at 414 nm with a Synergy H1 hybrid reader (Biotek). Values for 0% and 100% lysis were obtained by adding PBS or Triton X-100 (1%; final concentration) to RBCs, respectively. All assays were performed in triplicate and the values of percent lysis were within a 1% standard deviation range.
The mark [7] stands for this setting: Escherichia coli, Mueller Hinton broth, acetic acid/BSA, 1×10^5 bacteria, 37°C 16 h, read at 600 nm.
Setting [8] is: Pseudomonas aeruginosa, Mueller Hinton broth, acetic acid/BSA, 1×10^5 bacteria, 37°C 16 h, read at 600 nm.
Where [9] appears, read: Salmonella typhimurium, Mueller Hinton broth, acetic acid/BSA, 1×10^5 bacteria, 37°C 16 h, read at 600 nm.
Where [10] appears, read: Staphylococcus epidermis, Mueller Hinton broth, acetic acid/BSA, 1×10^5 bacteria, 37°C 16 h, read at 600 nm.
The mark [11] stands for this setting: Staphylococcus aureus, Mueller Hinton broth, acetic acid/BSA, 1×10^5 bacteria, 37°C 16 h, read at 600 nm.

By MIC is commonly meant the lowest concentration that inhibits growth of the organism. Low values mean a more susceptible organism, high ones a less susceptible organism. As to `CC[C@H](C)[C@H](NC(=O)[C@H](CCCCN)NC(=O)[C@H](CCC(=O)O)NC(=O)[C@H](CCCCN)NC(=O)[C@H](CO)NC(=O)[C@H](CCCCN)NC(=O)[C@H](CCCNC(=N)N)NC(=O)[C@H](Cc1ccccc1)NC(=O)[C@H](Cc1ccccc1)NC(=O)[C@H](CC(=O)O)NC(=O)CNC(=O)[C@H](CC(C)C)NC(=O)[C@@H](N)CC(C)C)C(=O)NCC(=O)N[C@@H](CCCCN)C(=O)N[C@@H](CCC(=O)O)C(=O)N[C@@H](Cc1ccccc1)C(=O)N[C@@H](CCCCN)C(=O)N[C@@H](CCCNC(=N)N)C(=O)N[C@H](C(=O)N[C@H](C(=O)N[C@@H](CCC(N)=O)C(=O)N[C@@H](CCCNC(=N)N)C(=O)N[C@H](C(=O)N[C@@H](CCCCN)C(=O)N[C@@H](CC(=O)O)C(=O)N[C@@H](Cc1ccccc1)C(=O)N[C@@H](CC(C)C)C(=O)N[C@@H](CCCNC(=N)N)C(=O)N[C@@H](CC(N)=O)C(=O)N[C@@H](CC(C)C)C(=O)N[C@H](C(=O)N1CCC[C@H]1C(=O)N[C@@H](CCCNC(=N)N)C(=O)N[C@H](C(=O)N[C@@H](CCC(=O)O)C(=O)N[C@@H](CO)C(=O)O)[C@@H](C)O)C(C)C)[C@@H](C)CC)C(C)C)[C@@H](C)CC` [LL-37, reference compound], the MIC is 4 µg/mL (≈ 0.89 µM) in series [1] (setting [7]); 8 µg/mL (≈ 1.78 µM) in series [2] (setting [8]); 2 µg/mL (≈ 0.445 µM) in series [3] (setting [9]); >128 µg/mL in series [4] (setting [10]); >128 µg/mL in series [5] (setting [11]). Besides, the Hemolytic activity amounted to 1.7% in series [6] (peptide 16 µg/ml); 4.1% in series [6] (peptide 32 µg/ml); 10.4% in series [6] (peptide 64 µg/ml); 20% in series [6] (peptide 128 µg/ml); 20% in series [6] (peptide 256 µg/ml).

“AMAYLAKDNLGEKITEVITILLNRLTDRLEKYAG [FhHDM-1p2]”: the MIC in series [1] (setting [7]), in series [2] (setting [8]), in series [3] (setting [9]), in series [4] (setting [10]) and in series [5] (setting [11]) was >128 µg/mL each time. Also, the Hemolytic activity in series [6] (peptide 8 µg/ml) was 0%; in series [6] (peptide 16 µg/ml), 0%; in series [6] (peptide 32 µg/ml) it was 1.8%; in series [6] (peptide 64 µg/ml) it was 2.6%; in series [6] (peptide 128 µg/ml), 5.4%; in series [6] (peptide 256 µg/ml), 11.4%.

For GGLRSLGRKILRAWKKYGPIIVPIIRIG [BMAP-28], the Hemolytic activity is 50% and 70%. For the same compound, the MIC in series [1] (16 h) is 1 µg/mL. The compound also came in with an MIC in series [2] (16 h) of 4 µg/mL. In addition, the MIC in series [3] (murium, 16 h) is 4 µg/mL. Also, the MIC in series [4] (16 h) was 4 µg/mL. The compound further displayed an MIC in series [5] (16 h) of 8 µg/mL.

For “ISRLAGLLRKGGEKIGEKLKKIGQKIKNFFQKLVPQPE [CRAMP]”, the MIC in series [1] (16 h) is 2 µg/mL; in series [2] (16 h) it was 4 µg/mL; in series [3] (murium, 16 h), 4 µg/mL; in series [4] (16 h) it was >128 µg/mL; in series [5] (16 h) it was >128 µg/mL.

In the case of “MDKYIRKEDLGMKMLDVAKILGRRIEKRMEYIAKK [Sm16-p73]”, the MIC in series [1] (setting [7]), in series [2] (setting [8]), in series [3] (setting [9]), in series [4] (setting [10]) and in series [5] (setting [11]) was >128 µg/mL in each case. The Hemolytic activity in series [6] (peptide 8 µg/ml), in series [6] (peptide 16 µg/ml), in series [6] (peptide 32 µg/ml), in series [6] (peptide 64 µg/ml), in series [6] (peptide 128 µg/ml) and in series [6] (peptide 256 µg/ml) was 0% in each case.
